Measurements as given in patent publication US20250134874A1, “PHARMACEUTICAL FORMULATIONS COMPRISING 3-({[(4R)-7-{METHYL[4-(PROPAN-2-YL)PHENYL]AMINO}-3,4-DIHYDRO-2H-1-BENZOPYRAN-4-YL]METHYL}AMINO)PYRIDINE-4-CARBOXYLIC ACID” (TACHYON THERAPEUTICS, INC., priority 2021, published 2025).

Experiments:
[1] = In vitro dissolution testing (USP Apparatus 1, basket); format: physicochemical; settings: DI water
Procedure: Dissolution and assay testing for API, F1, F7, F9, F10, F11 and F12.
• 6. Transfer 500 mL of DI water dissolution medium into each vessel. • 7. Equilibrate the dissolution medium to 37.0±0.5° C. • 8. Transfer 600 mg of each formulation granule into a capsule. • 9. Transfer a capsule into a basket and lower to the position. Start stirring at 100 RPM. • 10. At the stated time(s), sample 1 mL solutions by auto-sampler. Assay Sample Preparation (0.3 mg/mL): • 11. Weigh out 18 mg of granules into a […] volumetric flask. • 12. Dissolve and dilute up to the volume with Diluent (50% ACN in H2O). • 13. Mix well.

[2] = Particle size distribution by dynamic light scattering (Zetasizer); format: physicochemical; settings: in length
Procedure: Results: Particle size distribution as determined by dynamic light scattering of Compound 1 lysine salt nanosuspension post milling is shown below in Table 1B. Samples for particle size distribution was prepared by diluting the Nano milled sample by 100-fold with Di-water. Zetasizer was utilized to measure particle size distribution. PdI is the representation of the distribution of size populations within a given sample. This is a numerical range from 0.0 (for a perfectly uniform sample) through 1.0 (for a highly polydisperse sample with multiple particle size populations). The value D10 refers to a diameter of particles in the sample wherein 10% of the particles in the sample have a diameter smaller than this value (118.8 nm). The value D50 refers to a diameter of particles in the sample wherein 50% of the particles have a diameter smaller than this value (249.0 nm). The value D90 refers to a diameter of particles in the sample wherein 90% of the particles in the sample have a diameter smaller than this value (611 nm).
The stability of the nanosuspension based on particle size distribution under refrigerated condition and room condition is shown below in Table 2.

In the case of CC(C)c1ccc(N(C)c2ccc3c(c2)OCC[C@H]3CNc2cnccc2C(=O)O)cc1.NCCCC[C@H](N)C(=O)O [Compound 1 Lysine salt, 3-({[(4R)-7-{methyl[4-(propan-2-yl)phenyl]amino}-3,4-dihydro-2H-1-benzopyran-4-yl]methyl}amino)pyridine-4-carboxylic acid, L-lysine salt], the “release after 120 minutes” value [1] is reported as “no release at all” and the “initial particle size prior to milling” value [2] is reported as 6-15 micrometer.
